Source: US6458769B1, “Amorphous compound” (AstraZeneca AB, priority 2001, dated 2002)
Each block holds one molecule with its values, some of them ahead of it.

How the values were obtained:
[1] = literature value, Ip et al. 1992; cited from earlier work
[2] = Solubility determination by titrating deionised water, assessed visually; type: physicochemical; conditions: visual, lower limit = soluble, upper limit = undissolved material present
Protocol: Solubility was assessed using known quantities (approx 1 mg) and titrating small volumes (2-40 microlitres) of deionised water and assessed visually. The data given are ranges. The lower limit represents soluble and upper limit the presence of undissolved material.

[3] = Differential Scanning Calorimetry (DSC) glass transition; type: physicochemical; conditions: dry amorphous lisinopril, anomalous endotherm
Protocol: Differential Scanning Calorimetry (DSC) was performed on approximately 0.5-3 mg sample, using a Mettler DSC820 instrument, according to standard methods, for example those described in Hohne et al. (1996) Differential scanning Calorimetry, Springer, Berlin.

[4] = Thermal Mechanical Analysis (TMA) glass transition point; type: physicochemical; conditions: compressed pellet, heating rate 10° C./min, 30-160° C.
Protocol: The method involves compressing 140 mg of material in a punch and die (3 mm) to 2 KN. The compressed pellet was then placed on the TMA and the 1.1 mm probe placed on the top face. A heating rate of 10° C./min was used and the sample was heated from 30-160° C.

[5] = cited from earlier work

solubility [2]: 60 to 65 mg/mL
SMILES: NCCCC[C@H](NC(CCc1ccccc1)C(=O)O)C(=O)N1CCC[C@H]1C(=O)O (stereo partly drawn) [Dihydrate, (S)-1-[N^2-(1-carboxy-3-phenylpropyl]-L-lysyl]-L-proline]
Reference solubility (mg/ml) [1]: 97^1 mg/ml

glass transition temperature (Tg) by DSC [3]: 125 °C
glass transition temperature by TMA [4]: 129 °C
solubility ([2]; listed as Amorphous): 900 to 1250 mg/mL
SMILES: NCCCC[C@H](NC(CCc1ccccc1)C(=O)O)C(=O)N1CCC[C@H]1C(=O)O (stereo partly drawn) [amorphous lisinopril, (S)-1-[N^2-(1-carboxy-3-phenylpropyl]-L-lysyl]-L-proline]

SMILES: NCCCC[C@H](NC(CCc1ccccc1)C(=O)O)C(=O)N1CCC[C@H]1C(=O)O (stereo partly drawn) [lisinopril, (S)-1-[N^2-(1-carboxy-3-phenylpropyl]-L-lysyl]-L-proline]
effective half-life of accumulation ([5]; multiple dosing): about 12.6 hours
time to peak serum concentrations ([5]; oral administration): ≤ 7 h
